Source: patent US11370761B2, “Voltage-dependent T-type calcium channel inhibitor” (Nippon Chemiphar Co., Ltd., priority 2017, dated 2022)
pIC50: −log10 of the molar value.

Target: T1, human Cav3.2 channel (Homo sapiens, UniProt O95180)
T1 construct: expressed in transfected cells
Assay: Intracellular calcium concentration measurement in human Cav3.2 channel expressing stable cell line (Pharmacological Test 1)
Format: cell-based
Conditions: HEK293 cells stably expressing human Cav3.2, Fluo-4 AM fluorescence, KCl stimulation; read-out: Cav3.2 channel inhibitory action
From the text: (1) Construction of Human Cav3.2 Channel Expressing Stable Cell Line
A sequence in which a HindIII site and a kozak sequence (GCCACC) was provided on a 5′ side of a human Cav3.2 channel open reading frame (ORF) gene and a KpnI site was provided on a 3′ side thereof was incorporated into pcDNA3.1(+) (Thermo Fisher Scientific #V790-20), and the resultant was transfected into a HEK293 cell (ATCC No. CRL-1573) according to a protocol of FuGENE (registered trademark) HD Transfection Reagent (Promega #E2311).
(2) Method of Measuring Intracellular Calcium Concentration
The human Cav3.2 channel expressing stable cell line prepared by the test method (1) was seeded in a 96-well plate using a Dulbecco's modified Eagle's medium (DMEM medium) containing 10% fetal bovine serum (FBS), followed by culturing 37° C. for 48 hours under a 5% CO2 condition. Thereafter, the medium was removed, and each well washed with an A buffer was treated with 80 μL of a fluorescent dye solution containing a liquid mixture of 22 μg of a calcium fluorescent indicator Fluo-4 AM (Dojindo Molecular Technologies, Inc., #F311), 20 μL of dimethyl sulfoxide (DMSO), 1 μL of 10% Pluronic F-127 (Thermo Fisher Scientific #P6866), and 4 mL of the A buffer. After being left to stand for 45 minutes at room temperature under a light shielding condition, the cells were washed with a B buffer. In DMSO having the same final concentration as the test compound as a negative control, and the test compound dissolved in DMSO to have a final concentration of 0.1%, each test compound concentration solution containing the B buffer was added to each well. The cells were left to stand for additional 15 minutes at room temperature under a light shielding condition, and were measured using microplate reader EnVision (PerkinElmer Co., Ltd.) by the following method. First, after measuring background fluorescence in each well, an ionophore was added, and baseline fluorescence was measured. Thereafter, B buffer containing added KCl at a concentration of 83.8 mM was added to each well, and an increase in fluorescence due to calcium influx caused by the stimulation was measured for 10 seconds. Inhibition percentage was calculated from the maximum fluorescence increase value from the baseline, and an IC50 value was calculated by plotting a logarithmic value of the test compound concentration and inhibition activity. The measurement was performed by observing fluorescence of 510 nm emitted when the cells were irradiated with excitation light of 485 nm.
A buffer: 140 mM NaCl, 5 mM KCl, 1 mM MgCl2, 0.5 mM CaCl2, 10 mM Glucose, 10 mM HEPES, pH 7.3
B buffer: potassium equilibrium potential: −92 mV

T1 sequence (O95180 whole entry): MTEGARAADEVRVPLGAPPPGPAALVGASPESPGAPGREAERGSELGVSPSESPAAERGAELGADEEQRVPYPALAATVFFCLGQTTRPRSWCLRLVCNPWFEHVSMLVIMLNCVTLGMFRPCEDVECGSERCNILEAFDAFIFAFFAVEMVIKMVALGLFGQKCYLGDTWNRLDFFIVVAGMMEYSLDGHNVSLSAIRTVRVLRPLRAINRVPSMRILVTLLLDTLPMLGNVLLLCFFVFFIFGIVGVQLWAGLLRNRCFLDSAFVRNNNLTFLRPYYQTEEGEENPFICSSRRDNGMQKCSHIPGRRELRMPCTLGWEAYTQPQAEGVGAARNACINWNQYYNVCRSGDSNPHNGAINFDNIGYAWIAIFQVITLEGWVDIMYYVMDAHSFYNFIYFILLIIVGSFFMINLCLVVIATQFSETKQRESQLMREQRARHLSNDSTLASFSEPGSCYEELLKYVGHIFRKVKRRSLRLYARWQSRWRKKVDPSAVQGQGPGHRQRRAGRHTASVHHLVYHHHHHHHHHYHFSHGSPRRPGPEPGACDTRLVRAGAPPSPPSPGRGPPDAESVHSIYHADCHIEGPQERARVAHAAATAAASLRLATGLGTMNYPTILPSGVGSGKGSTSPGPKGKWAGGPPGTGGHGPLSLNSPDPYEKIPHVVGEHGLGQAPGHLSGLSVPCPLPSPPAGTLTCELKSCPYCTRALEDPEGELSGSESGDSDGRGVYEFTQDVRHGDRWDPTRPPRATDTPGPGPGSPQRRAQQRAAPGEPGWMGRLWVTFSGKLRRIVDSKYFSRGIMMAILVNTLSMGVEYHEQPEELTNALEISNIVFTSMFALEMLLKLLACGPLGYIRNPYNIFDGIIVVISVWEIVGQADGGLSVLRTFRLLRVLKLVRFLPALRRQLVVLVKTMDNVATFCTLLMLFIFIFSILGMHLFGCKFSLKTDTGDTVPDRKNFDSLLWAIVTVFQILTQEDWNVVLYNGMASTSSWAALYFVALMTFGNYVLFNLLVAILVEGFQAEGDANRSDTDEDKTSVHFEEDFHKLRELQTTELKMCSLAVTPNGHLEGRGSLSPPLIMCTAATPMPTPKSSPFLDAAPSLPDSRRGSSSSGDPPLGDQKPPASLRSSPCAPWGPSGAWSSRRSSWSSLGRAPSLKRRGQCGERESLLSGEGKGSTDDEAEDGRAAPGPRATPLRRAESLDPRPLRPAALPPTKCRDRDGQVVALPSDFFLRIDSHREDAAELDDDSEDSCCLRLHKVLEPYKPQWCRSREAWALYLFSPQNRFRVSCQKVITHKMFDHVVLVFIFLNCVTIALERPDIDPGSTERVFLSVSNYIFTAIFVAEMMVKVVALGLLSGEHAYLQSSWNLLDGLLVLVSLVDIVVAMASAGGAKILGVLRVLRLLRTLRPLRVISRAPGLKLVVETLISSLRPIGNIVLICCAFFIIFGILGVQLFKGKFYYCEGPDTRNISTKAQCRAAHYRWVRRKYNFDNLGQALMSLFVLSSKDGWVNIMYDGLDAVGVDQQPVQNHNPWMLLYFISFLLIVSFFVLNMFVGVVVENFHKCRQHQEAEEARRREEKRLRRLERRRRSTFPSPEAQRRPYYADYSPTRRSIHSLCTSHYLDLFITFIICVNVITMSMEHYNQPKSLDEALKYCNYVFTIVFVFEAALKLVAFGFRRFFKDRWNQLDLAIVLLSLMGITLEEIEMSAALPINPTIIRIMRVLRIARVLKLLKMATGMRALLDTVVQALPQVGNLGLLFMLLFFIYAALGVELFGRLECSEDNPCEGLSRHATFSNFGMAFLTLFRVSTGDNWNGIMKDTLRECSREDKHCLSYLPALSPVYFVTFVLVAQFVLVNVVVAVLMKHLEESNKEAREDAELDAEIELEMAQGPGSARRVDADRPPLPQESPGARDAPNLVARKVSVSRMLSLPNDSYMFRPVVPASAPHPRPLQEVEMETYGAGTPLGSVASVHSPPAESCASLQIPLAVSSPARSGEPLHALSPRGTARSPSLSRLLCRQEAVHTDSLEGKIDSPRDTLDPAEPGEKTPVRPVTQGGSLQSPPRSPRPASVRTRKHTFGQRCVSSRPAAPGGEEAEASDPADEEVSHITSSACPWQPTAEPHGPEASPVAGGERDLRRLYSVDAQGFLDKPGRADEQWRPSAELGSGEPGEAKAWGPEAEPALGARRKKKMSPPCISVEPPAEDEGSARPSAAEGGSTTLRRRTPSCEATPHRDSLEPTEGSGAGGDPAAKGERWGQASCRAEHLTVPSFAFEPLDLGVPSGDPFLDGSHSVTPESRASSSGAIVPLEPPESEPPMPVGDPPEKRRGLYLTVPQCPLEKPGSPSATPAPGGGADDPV

Compound	pIC50
CCCc1ccc(NC(=O)C(C)NC(=O)C2CC2c2nc3ccccc3[nH]2)cc1 (single isomer, unassigned) [Example 1B, Trans-2-(1H-benzo[d]imidazol-2-yl)-N-(1-oxo-1-((4-propylphenyl)amino)propan-2-yl) cyclopropane-1-carboxamide]	6.00 to 7.00
CCCc1ccc(NC(=O)C(C)NC(=O)C2CC2c2nc3ccccc3[nH]2)cc1 (single isomer, unassigned) [Example 2A, Trans-2-(1H-benzo[d]imidazol-2-yl)-N-(1-oxo-1-((4-propylphenyl)amino)propan-2-yl) cyclopropane-1-carboxamide]	6.00 to 7.00
CCCc1ccc(NC(=O)C(C)NC(=O)C2CC2c2nc3ccccc3[nH]2)cc1 (single isomer, unassigned) [Example 2B, Trans-2-(1H-benzo[d]imidazol-2-yl)-N-(1-oxo-1-((4-propylphenyl)amino)propan-2-yl) cyclopropane-1-carboxamide]	< 5.00
CC(NC(=O)C1CC1c1nc2ccccc2[nH]1)C(=O)Nc1ccc(C#N)cc1 (single isomer, unassigned) [Example 6A, Trans-2-(1H-benzo[d]imidazol-2-yl)-N-(1-((4-cyanophenyl)amino)-1-oxopropan-2-yl) cyclopropane-1-carboxamide]	5.00 to 6.00
CC(NC(=O)C1CC1c1nc2ccccc2[nH]1)C(=O)Nc1ccc(C#N)cc1 (single isomer, unassigned) [Example 6B, Trans-2-(1H-benzo[d]imidazol-2-yl)-N-(1-((4-cyanophenyl)amino)-1-oxopropan-2-yl) cyclopropane-1-carboxamide]	5.00 to 6.00
CC(NC(=O)C1CC1c1nc2ccccc2[nH]1)C(=O)Nc1ccc(C(C)(C)C)cc1 (single isomer, unassigned) [Example 7B, Trans-2-(1H-benzo[d]imidazol-2-yl)-N-(1-((4-(tert-butyl)phenyl)amino)-1-oxopropan-2-yl) cyclopropane-1-carboxamide]	6.00 to 7.00
CC(NC(=O)C1CC1c1nc2ccccc2[nH]1)C(=O)Nc1ccc(Cl)cc1 (single isomer, unassigned) [Example 16A, Trans-2-(1H-benzo[d]imidazol-2-yl)-N-(1-((4-chlorophenyl)amino)-1-oxopropan-2-yl) cyclopropane-1-carboxamide]	6.00 to 7.00
CC(NC(=O)C1CC1c1nc2ccccc2[nH]1)C(=O)Nc1ccc(Cl)cc1 (single isomer, unassigned) [Example 16B, Trans-2-(1H-benzo[d]imidazol-2-yl)-N-(1-((4-chlorophenyl)amino)-1-oxopropan-2-yl) cyclopropane-1-carboxamide]	5.00 to 6.00
CC(C)Oc1ccc(NC(=O)C(C)NC(=O)C2CC2c2nc3ccccc3[nH]2)cc1 (stereo not drawn) [Example 3, Trans-2-(1H-benzo[d]imidazol-2-yl)-N-(1-((4-isopropoxyphenyl)amino)-1-oxopropan-2-yl) cyclopropane-1-carboxamide]	5.00 to 6.00
CC(NC(=O)C1CC1c1nc2ccccc2[nH]1)C(=O)NCc1ccc(S(C)(=O)=O)cc1 (stereo not drawn) [Example 9, Trans-2-(1H-benzo[d]imidazol-2-yl)-N-(1-((4-(methylsulfonyl)benzyl)amino)-1-oxopropan-2-yl) cyclopropane-1-carboxamide]	< 5.00

Second part, the compound after the results:

pIC50	Compound
6.00 to 7.00	CC(NC(=O)C1CC1c1nc2ccccc2[nH]1)C(=O)Nc1ccc(C(F)(F)F)nc1 (single isomer, unassigned) [Example 5B, Trans-2-(1H-benzo[d]imidazol-2-yl)-N-(1-oxo-1-((6-(trifluoromethyl)pyridin-3-yl)amino)propan-2-yl) cyclopropane-1-carboxamide]
6.00 to 7.00	CC(NC(=O)C1CC1c1nc2ccccc2[nH]1)C(=O)N(C)c1ccc(C(F)(F)F)cc1 (single isomer, unassigned) [Example 8A, Trans-2-(1H-benzo[d]imidazol-2-yl)-N-(1-(methyl(4-(trifluoromethyl)phenyl)amino)-1-oxopropan-2-yl) cyclopropane-1-carboxamide]
5.00 to 6.00	CC(NC(=O)C1CC1c1nc2ccccc2[nH]1)C(=O)N(C)c1ccc(C(F)(F)F)cc1 (single isomer, unassigned) [Example 8B, Trans-2-(1H-benzo[d]imidazol-2-yl)-N-(1-(methyl(4-(trifluoromethyl)phenyl)amino)-1-oxopropan-2-yl) cyclopropane-1-carboxamide]
< 5.00	CC(NC(=O)C1CC1c1nc2ccccc2[nH]1)C(=O)Nc1cnc(Br)cn1 (single isomer, unassigned) [Example 18B, Trans-2-(1H-benzo[d]imidazol-2-yl)-N-(1-((5-bromopyrazin-2-yl)amino)-1-oxopropan-2-yl) cyclopropane-1-carboxamide]
5.00 to 6.00	O=C(Nc1ccc(C(F)(F)F)cc1)C1CCCN1C(=O)C1CC1c1nc2ccccc2[nH]1 (single isomer, unassigned) [Example 19A, Trans-1-(2-(1H-benzo[d]imidazol-2-yl)cyclopropane-1-carbonyl)-N-(4-(trifluoromethyl)phenyl)pyrrolidine-2-carboxamide]
5.00 to 6.00	O=C(Nc1ccc(C(F)(F)F)cc1)C1CCCN1C(=O)C1CC1c1nc2ccccc2[nH]1 (single isomer, unassigned) [Example 19B, Trans-1-(2-(1H-benzo[d]imidazol-2-yl)cyclopropane-1-carbonyl)-N-(4-(trifluoromethyl)phenyl)pyrrolidine-2-carboxamide]
5.00 to 6.00	O=C(NC1CCN(c2ccc(C(F)(F)F)cc2)C1=O)[C@H]1C[C@@H]1c1nc2ccccc2[nH]1 (single isomer, unassigned) [Example 23A]
6.00 to 7.00	O=C(NC1CCN(c2ccc(C(F)(F)F)cc2)C1=O)[C@H]1C[C@@H]1c1nc2ccccc2[nH]1 (single isomer, unassigned) [Example 23B]
6.00 to 7.00	COCC(NC(=O)[C@H]1C[C@@H]1c1nc2ccccc2[nH]1)C(=O)Nc1ccc(F)c(C(F)(F)F)c1 (single isomer, unassigned) [Example 32A]
6.00 to 7.00	COCC(NC(=O)[C@H]1C[C@@H]1c1nc2ccccc2[nH]1)C(=O)Nc1ccc(F)c(C(F)(F)F)c1 (single isomer, unassigned) [Example 32B]
5.00 to 6.00	O=C(NC1CC(=O)N(c2ccc(C(F)(F)F)nc2)C1)[C@H]1C[C@@H]1c1nc2ccccc2[nH]1 (single isomer, unassigned) [Example 33A]
5.00 to 6.00	O=C(NC1CC(=O)N(c2ccc(C(F)(F)F)nc2)C1)[C@H]1C[C@@H]1c1nc2ccccc2[nH]1 (single isomer, unassigned) [Example 33B]
≥ 7.00	CC(NC(=O)C1CC1c1nc2ccccc2[nH]1)C(=O)Nc1cccc(C(F)(F)F)c1 (single isomer, unassigned) [Example 38A, Trans-2-(1H-benzo[d]imidazol-2-yl)-N-(1-oxo-1-((3-(trifluoromethyl)phenyl)amino)propan-2-yl) cyclopropane-1-carboxamide]
≥ 7.00	CC(NC(=O)C1CC1c1nc2ccccc2[nH]1)C(=O)Nc1cccc(C(F)(F)F)c1 (single isomer, unassigned) [Example 38B, Trans-2-(1H-benzo[d]imidazol-2-yl)-N-(1-oxo-1-((3-(trifluoromethyl)phenyl)amino)propan-2-yl) cyclopropane-1-carboxamide]
